Our source for the IC50 values is US9434763B2, “Derivatives of pyridinone as inhibitors for tissue transglutaminase” (ZEDIRA GMBH, priority 2012, dated 2016).

The structures appear in SMILES notation.

What all share (type): biochemical
Assay [1] addresses T1, tissue transglutaminase (TG2) (Homo sapiens, UniProt P21980).
T1 construct: purchased Zedira T036 (kit)
T1 sequence (P21980 1-687): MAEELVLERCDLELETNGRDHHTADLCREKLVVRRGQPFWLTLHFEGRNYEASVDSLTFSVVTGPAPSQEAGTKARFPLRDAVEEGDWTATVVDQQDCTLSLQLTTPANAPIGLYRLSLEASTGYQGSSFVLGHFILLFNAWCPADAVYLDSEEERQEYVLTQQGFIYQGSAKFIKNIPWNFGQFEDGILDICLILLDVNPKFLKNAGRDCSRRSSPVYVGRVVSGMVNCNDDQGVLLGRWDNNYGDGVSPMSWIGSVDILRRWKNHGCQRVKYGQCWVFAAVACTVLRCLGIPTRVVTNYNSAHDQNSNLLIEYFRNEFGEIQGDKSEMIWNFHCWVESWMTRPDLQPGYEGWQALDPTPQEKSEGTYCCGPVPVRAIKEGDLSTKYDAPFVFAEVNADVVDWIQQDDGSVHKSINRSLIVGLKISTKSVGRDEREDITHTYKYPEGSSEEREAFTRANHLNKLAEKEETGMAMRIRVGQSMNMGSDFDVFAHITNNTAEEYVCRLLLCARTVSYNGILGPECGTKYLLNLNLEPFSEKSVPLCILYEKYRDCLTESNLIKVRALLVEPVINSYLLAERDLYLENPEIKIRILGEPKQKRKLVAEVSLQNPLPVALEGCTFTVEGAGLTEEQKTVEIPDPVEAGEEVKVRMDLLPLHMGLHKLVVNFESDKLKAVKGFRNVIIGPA
Description: Comparative transglutaminase selectivity assay with casein and dansylcadaverine as substrates (kit T036): TG2. The note with it: casein as substrate (apparent IC50). An excerpt:
(§1) The comparative determination of different transglutaminases to determine the selectivity was made with casein and dansylcadaverine as substrates. Therefore, the kit T036 (Zedira, Darmstadt; Refs: Lorand et al, Anal Biochem, 1971, 44:221-31) as well as transglutaminase products T009 (transglutaminase 1), T012 (transglutaminase 3), T021 (transglutaminase 6) and T027 (plasma transglutaminase, factor XIII) are used. Therefore, two different IC50 values for the compounds are given.
(§2) The evaluation of the resulting enzyme activity is done using the slope of the straight line obtained by the increase in fluorescence.
(§3) To determine the non-inhibited enzyme activity, DMSO instead of inhibitor stock solution is used. IC50 values are determined by plotting the resulting enzyme activity against the logarithm of the inhibitor concentration. IC50 is defined as the concentration of inhibitor resulting in 50% of enzyme activity.
(§4) It should be noted that it was measured here against casein as substrate, which is why other apparent inhibition values (IC50 value) result.

Assay [2] addresses T2, His tagged recombinant human tissue transglutaminase (His6-rh-TG2) (Homo sapiens, UniProt P21980).
T2 construct: purchased Zedira T002
T2 sequence (P21980 1-687): T1 sequence (P21980 1-687)
Put plainly: Inactivation of human tissue transglutaminase, fluorescence assay with Abz-APE(CAD-DNP)QEA-OH. The settings on record: substrate Abz-APE(CAD-DNP)QEA-OH, 37° C., pH=7.5. The essentials: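 His6-rh-TG2 (10 μg per assay) was preincubated 5 min at 37 °C with inhibitor in Tris/CaCl2/PEG8000/DTT/glycine methyl ester assay solution (50 μM Abz-APE(CAD-DNP)QEA-OH), pH 7.5, DMSO <0.2%. Fluorescence (ex 313/em 418 nm) read over 15–30 min and activity taken from the slope. IC50 from activity vs log inhibitor concentration.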

The target in assay [3] is T3, FXIII (plasma transglutaminase, factor XIII) (Homo sapiens, UniProt P00488).
T3 construct: purchased Zedira T027
T3 sequence (P00488 1-732): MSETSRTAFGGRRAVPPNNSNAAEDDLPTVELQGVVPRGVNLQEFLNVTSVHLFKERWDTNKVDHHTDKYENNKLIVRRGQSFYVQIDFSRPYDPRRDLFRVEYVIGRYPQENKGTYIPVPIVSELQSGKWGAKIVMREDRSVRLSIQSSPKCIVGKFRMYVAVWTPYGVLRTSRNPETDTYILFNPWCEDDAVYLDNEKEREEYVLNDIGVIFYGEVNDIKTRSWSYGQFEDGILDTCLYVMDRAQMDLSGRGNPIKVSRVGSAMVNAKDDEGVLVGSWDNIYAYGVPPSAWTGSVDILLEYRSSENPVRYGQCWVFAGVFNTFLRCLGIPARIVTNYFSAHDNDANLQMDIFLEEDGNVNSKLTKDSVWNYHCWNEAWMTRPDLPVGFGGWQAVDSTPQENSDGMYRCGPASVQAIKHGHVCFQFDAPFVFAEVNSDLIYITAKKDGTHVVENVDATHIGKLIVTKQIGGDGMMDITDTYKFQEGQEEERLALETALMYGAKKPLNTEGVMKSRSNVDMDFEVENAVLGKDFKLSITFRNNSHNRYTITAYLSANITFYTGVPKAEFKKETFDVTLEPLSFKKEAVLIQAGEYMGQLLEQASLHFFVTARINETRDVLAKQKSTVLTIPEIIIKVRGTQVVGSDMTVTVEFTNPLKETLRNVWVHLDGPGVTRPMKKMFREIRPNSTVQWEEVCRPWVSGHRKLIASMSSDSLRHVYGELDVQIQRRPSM
Description: Comparative transglutaminase selectivity assay with casein and dansylcadaverine as substrates: FXIII. The settings on record: casein as substrate.
Source text: as §1, §2, §3, §4

As for `CCOC(=O)/C=C/CC[C@H](NC(=O)c1cncn1C)C(=O)Nc1cccn(CC(=O)N[C@H](C(=O)O)[C@H](C)CC)c1=O` [A53, (2S,3R)-2-(2-(3-((S,E)-7-Ethoxy-2-(1-methyl-1H-imidazole-5-carboxamido)-7-oxohept-5-enamido)-2-oxopyridin-1(2H)-yl)acetamido)-3-methylpentanoic acid], the values for the half-maximal inhibitory concentration (IC50) in assay [1], in assay [2] and in assay [3] were 0.833 µM, 0.06 µM and 77.7 µM, respectively.

On to `CCOC(=O)/C=C/CC[C@H](NC(=O)c1ccccc1)C(=O)Nc1cccn(CC(=O)N[C@H](C(=O)O)[C@H](C)CC)c1=O` [A59, (2S,3R)-2-(2-(3-((S,E)-2-Benzamido-7-ethoxy-7-oxohept-5-enamido)-2-oxopyridin-1(2H)-yl)acetamido)-3-methylpentanoic acid], for which the figures for the IC50 in assay [1], in assay [2] and in assay [3] were 0.461 µM, 0.043 µM and 79.6 µM, respectively.

Regarding `CC[C@@H](C)[C@H](NC(=O)Cn1cccc(NC(=O)[C@H](CC/C=C/C(=O)OC)NC(=O)c2cncn2C)c1=O)C(=O)O` [A60, (2S,3R)-2-(2-(3-((S,E)-7-Methoxy-2-(1-methyl-1H-imidazole-5-carboxamido)-7-oxohept-5-enamido)-2-oxopyridin-1(2H)-yl)acetamido)-3-methylpentanoic acid], the half-maximal inhibitory concentration (IC50) in assay [1] is 0.112 µM; in assay [2] it was 0.054 µM; in assay [3], 73.2 µM.

As for `CCOC(=O)/C=C/CC[C@H](NC(C)=O)C(=O)Nc1cccn(CC(=O)NCC(CC)CC)c1=O` [A62, (S,E)-Ethyl 6-acetamido-7-(1-(2-(2-ethylbutylamino)-2-oxoethyl)-2-oxo-1,2-dihydropyridin-3-ylamino)-7-oxohept-2-enoate], the IC50 in assay [1] turned out to be 1.96 µM; in assay [2], 0.093 µM; in assay [3], 122 µM.

`CCC(CC)CNC(=O)Cn1cccc(NC(=O)[C@H](CC/C=C/C(=O)OC)NC(=O)c2cncn2C)c1=O` [A63, (S,E)-Methyl 7-(1-(2-(2-ethylbutylamino)-2-oxoethyl)-2-oxo-1,2-dihydropyridin-3-ylamino)-6-(1-methyl-1H-imidazole-5-carboxamido)-7-oxohept-2-enoate]: the IC50 in assay [1] was 0.218 µM; in assay [2], 0.045 µM; in assay [3] it was 89 µM.

With `COC(=O)/C=C/CC[C@H](NC(C)=O)C(=O)Nc1cccn(CC(=O)N2CCCC(C)C2)c1=O` (stereo partly drawn) [A64, (6S,E)-Methyl 6-acetamido-7-(1-(2-(3-methylpipendin-1-yl)-2-oxoethyl)-2-oxo-1,2-dihydropyridin-3-ylamino)-7-oxohept-2-enoate], the values for the IC50 in assay [1], in assay [2] and in assay [3] were 3 µM, 0.141 µM and 120 µM, respectively.

Consider `COC(=O)/C=C/CC[C@H](NC(C)=O)C(=O)Nc1cccn(CC(=O)N2CCC(C(F)(F)F)CC2)c1=O` [A65, (S,E)-Methyl 6-acetamido-7-oxo-7-(2-oxo-1-(2-oxo-2-(4-(trifluoromethyl)piperidin-1-yl)ethyl)-1,2-dihydropyridin-3-ylamino)hept-2-enoate], for which the results for the IC50 in assay [1], in assay [2] and in assay [3] were 2.9 µM, 0.132 µM and 156 µM, respectively.

Regarding `CCC(CC)CNC(=O)Cn1cccc(NC(=O)[C@H](CC/C=C/C(=O)OC)NC(C)=O)c1=O` [A79, (S,E)-Methyl 6-acetamido-7-(1-(2-(2-ethylbutylamino)-2-oxoethyl)-2-oxo-1,2-dihydropyridin-3-ylamino)-7-oxohept-2-enoate], the IC50 in assay [1] was 0.397 µM; in assay [2], 0.034 µM; in assay [3], 78.2 µM.

As usually defined, the IC50 is the point on the concentration scale where inhibition reaches its midpoint.
